The results in this text go back to patent publication US10722514B2 (FLX Bio, Inc., priority 2017, dated 2020).

The IC50 is the concentration needed to halve the response being measured.

Molecules are shown by their SMILES. Where only a bound is given, the exact number is not on record here.

T1 sequence (Q93009 whole entry): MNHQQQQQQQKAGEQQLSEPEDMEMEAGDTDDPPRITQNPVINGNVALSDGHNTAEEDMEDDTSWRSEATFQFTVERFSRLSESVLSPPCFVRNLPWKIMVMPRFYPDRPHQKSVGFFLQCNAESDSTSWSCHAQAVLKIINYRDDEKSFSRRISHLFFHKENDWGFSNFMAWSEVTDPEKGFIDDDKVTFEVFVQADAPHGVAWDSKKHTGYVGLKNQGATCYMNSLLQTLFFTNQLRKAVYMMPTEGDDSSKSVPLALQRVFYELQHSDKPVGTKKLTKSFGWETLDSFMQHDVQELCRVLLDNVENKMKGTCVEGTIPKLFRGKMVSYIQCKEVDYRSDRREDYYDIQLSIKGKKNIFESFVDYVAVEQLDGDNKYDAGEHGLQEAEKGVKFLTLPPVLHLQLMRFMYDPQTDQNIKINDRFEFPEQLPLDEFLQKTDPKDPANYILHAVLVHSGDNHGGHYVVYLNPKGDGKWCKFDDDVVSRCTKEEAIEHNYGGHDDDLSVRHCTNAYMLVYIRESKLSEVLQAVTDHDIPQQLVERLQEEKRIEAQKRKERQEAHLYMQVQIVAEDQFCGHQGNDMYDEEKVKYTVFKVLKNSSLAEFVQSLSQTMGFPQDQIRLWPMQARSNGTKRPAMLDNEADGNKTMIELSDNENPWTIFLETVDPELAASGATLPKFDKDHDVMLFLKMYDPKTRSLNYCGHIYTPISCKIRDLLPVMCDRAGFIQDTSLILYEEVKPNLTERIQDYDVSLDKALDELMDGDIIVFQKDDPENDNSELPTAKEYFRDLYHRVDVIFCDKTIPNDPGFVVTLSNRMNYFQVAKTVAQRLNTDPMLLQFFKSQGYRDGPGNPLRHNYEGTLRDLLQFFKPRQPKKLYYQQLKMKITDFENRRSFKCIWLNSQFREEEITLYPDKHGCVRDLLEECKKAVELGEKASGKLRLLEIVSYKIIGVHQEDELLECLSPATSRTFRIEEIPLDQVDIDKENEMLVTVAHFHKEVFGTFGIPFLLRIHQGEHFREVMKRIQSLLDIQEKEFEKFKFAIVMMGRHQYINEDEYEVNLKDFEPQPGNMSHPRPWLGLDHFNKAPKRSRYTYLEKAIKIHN

One assay concerns the target T1, recombinant full-length USP7 (Homo sapiens, UniProt Q93009).
T1 construct: A 25 μl reaction volume containing recombinant full-length USP7 (62 pM)
Description: USP7-mediated ubiquitin-rhodamine cleavage assay. To be noted: recombinant full-length USP7 62 pM; ubiquitin-rhodamine 100 nM; 30-minute incubation with compound, 1 hour reaction at room temperature; read-out: Potency: USP7 IC50. The class given is biochemical. In a few lines:
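Rhodamine fluorescence read-out after acetic acid stop; IC50 by 4-parameter nonlinear regression. Enzyme at 62 pM, substrate ubiquitin-rhodamine 100 nM final, 1 h at room temperature in the dark, after 30 min compound preincubation. Buffer: HEPES pH 7.3, NaCl, TCEP, BSA; 1% DMSO.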
Turning to `Cc1cc(Cl)cc(-c2ccnc3cc(CO)sc23)c1OC[C@H]1CCN1` [Example 16, (R)-(7-(2-(Azetidin-2-ylmethoxy)-5-chloro-3-methylphenyl)thieno[3,2-b]pyridin-2-yl)methanol], the IC50 is 10000 to 30000 nM.
On to `Cc1cc(Cl)cc(-c2ccnc3cc(CN4C(=O)C5C(C4=O)C5(C)C)sc23)c1OC1CN2CCC1CC2` (centres unmarked) [Example 316, 3-[[7-(5-chloro-3-methyl-2-quinuclidin-3-yloxy-phenyl)thieno[3,2-b]pyridin-2-yl]methyl]-6,6-dimethyl-3-azabicyclo[3.1.0]hexane-2,4-dione; 2,2,2-trifluoroacetic acid], for which the IC50 was less than 1000 nM.
Same read-out and setting: for `Cc1cc(Cl)cc(-c2ccnc3cc(CN4C(=O)CC(C)(C)CC4=O)sc23)c1OC1CCNCC1` [Example 258, 1-((7-(5-Chloro-3-methyl-2-(piperidin-4-yloxy)phenyl)thieno[3,2-b]pyridin-2-yl)methyl)-4,4-dimethylpiperidine-2,6-dione] the value was less than 1000 nM; for `Cc1cc(Cl)cc(-c2ccnc3cc(CO)sc23)c1O[C@@H]1CNC[C@H]1O` [Example 80, (3R,4R)-4-(4-Chloro-2-(2-(hydroxymethyl)thieno[3,2-b]pyridin-7-yl)-6-methylphenoxy)pyrrolidin-3-ol], 1000 to 10000 nM; for `Cc1cc(Cl)cc(-c2ccnc3cc(CO)sc23)c1O[C@@H]1CN[C@H](CO)C1` [Example 77, (7-(5-Chloro-2-(((3S,5S)-5-(hydroxymethyl)pyrrolidin-3-yl)oxy)-3-methylphenyl)thieno[3,2-b]pyridin-2-yl)methanol], 10000 to 30000 nM.
`Cc1cc(Cl)cc(-c2ccnc3cc(CN4C(=O)C5CC5C4=O)sc23)c1OC1CN2CCC1CC2` (centres unmarked) [Example 319, 3-[[7-(5-chloro-3-methyl-2-quinuclidin-3-yloxy-phenyl)thieno[3,2-b]pyridin-2-yl]methyl]-3-azabicyclo[3.1.0]hexane-2,4-dione; 2,2,2-trifluoroacetic acid]: the IC50 was less than 1000 nM.
The same measure, in the same setting: in the case of `Cc1cc(Cl)cc(-c2ccnc3c(F)c(CO)sc23)c1O[C@@H]1CNC[C@@H]1F` [Example 156, (7-(5-Chloro-2-(((3R,4S)-4-fluoropyrrolidin-3-yl)oxy)-3-methylphenyl)-3-fluorothieno[3,2-b]pyridin-2-yl)methanol] it was 1000 to 10000 nM.
Same read-out and setting: in the case of `Cc1cc(Cl)cc(-c2ccnc3cc(CN4C(=O)C5C(C4=O)C5(C)C)sc23)c1O[C@@H]1CNC[C@@H]1C` (stereo partly drawn) [Example 328, 3-[[7-[5-chloro-3-methyl-2-[(3S,4S)-4-methylpyrrolidin-3-yl]oxy-phenyl]thieno[3,2-b]pyridin-2-yl]methyl]-6,6-dimethyl-3-azabicyclo[3.1.0]hexane-2,4-dione] it was less than 1000 nM.
For the compound `Cc1cc(Cl)cc(-c2ccnc3cc(CN4C(=O)CN(C)C4=O)sc23)c1OC1CCNCC1` [Example 224, 3-((7-(5-Chloro-3-methyl-2-(piperidin-4-yloxy)phenyl)thieno[3,2-b]pyridin-2-yl)methyl)-1-methylimidazolidine-2,4-dione], the IC50 lay within 1000 to 10000 nM.
The same measure, in the same setting: in the case of `Cc1cc(Cl)cc(-c2ccnc3cc(CN4C(=O)CCC4=O)sc23)c1O[C@@H]1CN(C)C[C@@H]1F` [Example 124, 1-((7-(5-Chloro-2-(((3R,4S)-4-fluoro-1-methylpyrrolidin-3-yl)oxy)-3-methylphenyl)thieno[3,2-b]pyridin-2-yl)methyl)pyrrolidine-2,5-dione] it was less than 1000 nM; in that of `Cc1cc(Cl)cc(-c2ncnc3cc(CN4C(=O)C(C)C(C)C4=O)sc23)c1O[C@@H]1CNC[C@@H]1F` (stereo partly drawn) [Example 379, 1-[[4-[5-chloro-2-[(3R,4S)-4-fluoropyrrolidin-3-yl]oxy-3-methyl-phenyl]thieno[3,2-d]pyrimidin-6-yl]methyl]-3,4-dimethyl-pyrrolidine-2,5-dione; 2,2,2-trifluoroacetic acid], less than 1000 nM.
`Cc1cc(C#N)cc(-c2ccnc3cc(CN4C(=O)CCC4=O)sc23)c1OCC1(C#N)CNC1` [Example 27, 3-((4-Cyano-2-(2-((2,5-dioxopyrrolidin-1-yl)methyl)thieno[3,2-b]pyridin-7-yl)-6-methylphenoxy)methyl)azetidine-3-carbonitrile]: the IC50 is less than 1000 nM.
On the same count and under the same terms, for `OCc1cc2nccc(-c3cc(F)cc(Br)c3O[C@H]3CCCNC3)c2s1` [Example 169, (S)-(7-(3-Bromo-5-fluoro-2-(piperidin-3-yloxy)phenyl)thieno[3,2-b]pyridin-2-yl)methanol] the value was 10000 to 30000 nM.
Consider `CCC(O)c1cc2nccc(-c3cc(Cl)cc(C)c3OCC3CCNCC3)c2s1` (centres unmarked) [Example 204, 1-(7-(5-Chloro-3-methyl-2-(piperidin-4-ylmethoxy)phenyl)thieno[3,2-b]pyridin-2-yl)propan-1-ol], for which the IC50 lay within 10000 to 30000 nM.

Staying with this assay, now noted: recombinant full-length USP7 62 pM; ubiquitin-rhodamine 100 nM; 30-minute incubation, 1 hour reaction at room temperature; read-out: Potency (USP7 IC50).
For the compound `CCN(CC)C(=O)CN1CC[C@@H](Oc2c(C)cc(Cl)cc2-c2ccnc3cc(Cn4c(=O)ccn(CC(F)(F)F)c4=O)sc23)[C@@H](C)C1` [Example 692, 2-[(3S,4R)-4-[4-chloro-2-[2-[[2,6-dioxo-3-(2,2,2-trifluoroethyl)pyrimidin-1-yl]methyl]thieno[3,2-b]pyridin-7-yl]-6-methyl-phenoxy]-3-methyl-1-piperidyl]-N,N-diethyl-acetamide], the IC50 was less than 1000 nM.

The same assay, now with this note: recombinant full-length USP7 62 pM; ubiquitin-rhodamine 100 nM; 30-minute pre-incubation, 1 hour reaction at room temperature; read-out: Potency (USP7 IC50).
On to `Cc1cc(Cl)cc(-c2ccnc3cc(Cn4c(=O)ccn(C)c4=O)sc23)c1O[C@H]1CCN(CCO)C[C@@H]1F` [Example 483, 3-[[7-[5-chloro-2-[[(3S,4S)-3-fluoro-1-(2-hydroxyethyl)-4-piperidyl]oxy]-3-methyl-phenyl]thieno[3,2-b]pyridin-2-yl]methyl]-1-methyl-pyrimidine-2,4-dione; 2,2,2-trifluoroacetic acid], for which the IC50 was less than 1000 nM.
As to `Cc1cc(Cl)cc(-c2ncnc3cc(CN4C(=O)C5CC5C4=O)sc23)c1OC1CCCNC1` (centres unmarked) [Example 412, 3-[[4-[5-chloro-3-methyl-2-(3-piperidyloxy)phenyl]thieno[3,2-d]pyrimidin-6-yl]methyl]-3-azabicyclo[3.1.0]hexane-2,4-dione], the IC50 is less than 1000 nM.
The same measure, in the same setting: for `Cc1cc(Cl)cc(-c2ncnc3cc(Cn4c(=O)ccn(CC(F)(F)F)c4=O)sc23)c1OC1CNC1` [Example 587, 3-[[4-[2-(azetidin-3-yloxy)-5-chloro-3-methyl-phenyl]thieno[3,2-d]pyrimidin-6-yl]methyl]-1-(2,2,2-trifluoroethyl)pyrimidine-2,4-dione] the value was less than 1000 nM; for `Cc1cc(Cl)cc(-c2ccnc3cc(CN4C(=O)CCC4=O)sc23)c1O[C@@H]1CNCC[C@H]1C` [Example 415, 1-[[7-[5-chloro-3-methyl-2-[[(3S,4R)-4-methyl-3-piperidyl]oxy]phenyl]thieno[3,2-b]pyridin-2-yl]methyl]pyrrolidine-2,5-dione], less than 1000 nM.
Turning to `Cc1cc(Cl)cc(-c2ccnc3cc(Cn4c(=O)ccn(CCC(F)(F)F)c4=O)sc23)c1O[C@H]1CCCNC1` [Example 583, 3-[[7-[5-chloro-3-methyl-2-[[(3S)-3-piperidyl]oxy]phenyl]thieno[3,2-b]pyridin-2-yl]methyl]-1-(3,3,3-trifluoropropyl)pyrimidine-2,4-dione], the IC50 was less than 1000 nM.
Turning to `CCN1C[C@H]2C[C@@H]1[C@H](Oc1c(C)cc(Cl)cc1-c1ccnc3cc(Cn4c(=O)ccn(CC(F)(F)F)c4=O)sc13)C2` [Example 619, 3-[[7-[5-chloro-2-[[(1S,4R,5R)-3-ethyl-3-azabicyclo[2.2.1]heptan-5-yl]oxy]-3-methyl-phenyl]thieno[3,2-b]pyridin-2-yl]methyl]-1-(2,2,2-trifluoroethyl)pyrimidine-2,4-dione], the IC50 is less than 1000 nM.
Turning to `Cc1cc(Cl)cc(-c2ccnc3cc(Cn4c(=O)ccn(C)c4=O)sc23)c1O[C@@H]1C[C@H]2COCCN2C1` [Example 501, 3-[[7-[2-[[(7R,8aS)-3,4,6,7,8,8a-hexahydro-1H-pyrrolo[2,1-c][1,4]oxazin-7-yl]oxy]-5-chloro-3-methyl-phenyl]thieno[3,2-b]pyridin-2-yl]methyl]-1-methyl-pyrimidine-2,4-dione], the IC50 was less than 1000 nM.
On to `Cc1cc(Cl)cc(-c2ncnc3cc(Cn4c(=O)ccn(C(C)C)c4=O)sc23)c1O[C@H]1CC[C@H](N)C1` [Example 542, 3-[[4-[2-[(1S,3S)-3-aminocyclopentoxy]-5-chloro-3-methyl-phenyl]thieno[3,2-d]pyrimidin-6-yl]methyl]-1-isopropyl-pyrimidine-2,4-dione; 2,2,2-trifluoroacetic acid], for which the IC50 is less than 1000 nM.
As for `Cc1cc(Cl)cc(-c2ccnc3cc(Cn4c(=O)ccn(CC(F)(F)F)c4=O)sc23)c1O[C@@H]1CN(C2CC(C(F)(F)F)C2)C[C@@H]1C` (stereo partly drawn) [Example 644, 3-[[7-[5-chloro-3-methyl-2-[(3S,4S)-4-methyl-1-[3-(trifluoromethyl)cyclobutyl]pyrrolidin-3-yl]oxy-phenyl]thieno[3,2-b]pyridin-2-yl]methyl]-1-(2,2,2-trifluoroethyl)pyrimidine-2,4-dione], the IC50 was less than 1000 nM.
With `CCN1CCCC(Oc2c(C)cc(Cl)cc2-c2ccnc3cc(Cn4c(=O)ccn(C)c4=O)sc23)C1` (centres unmarked) [Example 504, 3-[[7-[5-chloro-2-[(1-ethyl-3-piperidyl)oxy]-3-methyl-phenyl]thieno[3,2-b]pyridin-2-yl]methyl]-1-methyl-pyrimidine-2,4-dione], the IC50 is less than 1000 nM.
Same read-out and setting: in the case of `Cc1cc(Cl)cc(-c2ccnc3cc(Cn4c(=O)ccn(CC(F)(F)F)c4=O)sc23)c1O[C@@H]1CN[C@H](C)C1` [Example 633, 3-[[7-[5-chloro-3-methyl-2-[(3S,5R)-5-methylpyrrolidin-3-yl]oxy-phenyl]thieno[3,2-b]pyridin-2-yl]methyl]-1-(2,2,2-trifluoroethyl)pyrimidine-2,4-dione] it was less than 1000 nM.
